≈ marks a conversion by molar mass, not a printed value.
How the values were obtained:
M. pneumoniae ATCC 15492 = test: MIC against mycoplasma in vitro; assay type: cell-based; conditions: Mycoplasmoides pneumoniae, ATCC15492, 144 h; M. pneumoniae ATCC 15492; 6 days, 37° C.; read-out: MIC
[1] = tested on: Strep. suis (group D) SPS11; test: MIC against veterinary bacteria in vitro; conditions: Streptococcus suis, 18 h
Procedure: (§1) The activity of the compounds of the Examples against various veterinarily important bacteria, was assayed in vitro using two-fold serial dilutions in Diagnostic Sensitivity Test Agar inoculated with 10^4 organisms.

B. subtilis ATCC 6633 = test: MIC against veterinary bacteria in vitro; conditions: Bacillus subtilis, ATCC6633, 18 h
Procedure: as §1

[2] = tested on: Staph. aureus B4 (pen. resistant); test: MIC against veterinary bacteria in vitro; conditions: Staphylococcus aureus, 18 h
Procedure: as §1

M. gallisepticum S6 = test: MIC against mycoplasma in vitro; assay type: cell-based; conditions: Mycoplasmoides gallisepticum, S6, 144 h
Strep. dysgalactiae SPD1 = test: MIC against veterinary bacteria in vitro; conditions: Streptococcus dysgalactiae, SPD1, 18 h
Procedure: as §1

[3] = tested on: Erysipelothrix rhusiopathiae NCTC 8163; test: MIC against veterinary bacteria in vitro; conditions: Erysipelothrix rhusiopathiae, NCTC8163, 18 h
Procedure: as §1

S. typhimurium S18 = test: MIC against veterinary bacteria in vitro; conditions: Salmonella enterica, TYPHIMURIUM, 18 h
Procedure: as §1

M. suipneumoniae TAM 6N = test: MIC against mycoplasma in vitro; assay type: cell-based; conditions: Mesomycoplasma hyopneumoniae, TAM6N, 144 h; M. suipneumoniae TAM 6N; 6 days, 37° C.; read-out: MIC
[4] = tested on: M. suipneumoniae J2206/183^b; test: MIC against mycoplasma in vitro; assay type: cell-based; conditions: Mesomycoplasma hyopneumoniae, 144 h; M. suipneumoniae J2206/183^b; 6 days, 37° C.; read-out: MIC
[5] = tested on: Corynebacterium pyogenes CY1; test: MIC against veterinary bacteria in vitro; conditions: CY1, 18 h
Procedure: as §1

M. suipneumoniae JF 435 = test: MIC against mycoplasma in vitro; assay type: cell-based; conditions: Mesomycoplasma hyopneumoniae, JF435, 144 h
Strep. uberis SPU1 = test: MIC against veterinary bacteria in vitro; conditions: Streptococcus uberis, SPU1, 18 h
Procedure: as §1

Staph. aureus Oxford = test: MIC against veterinary bacteria in vitro; conditions: Staphylococcus aureus, 18 h
Procedure: as §1

[6] = tested on: M. hyosynoviae ATCC 25591; test: MIC against mycoplasma in vitro; assay type: cell-based; conditions: 144 h
M. suipneumoniae LABER = test: MIC against mycoplasma in vitro; assay type: cell-based; conditions: Mesomycoplasma hyopneumoniae, 144 h
S. dublin S7 = test: MIC against veterinary bacteria in vitro; conditions: Salmonella enterica, S7, 18 h
Procedure: as §1

Bord. bronchiseptica B08 = test: MIC against veterinary bacteria in vitro; conditions: Bordetella bronchiseptica, B08, 18 h
Procedure: as §1

Bord. bronchiseptica B09 = test: MIC against veterinary bacteria in vitro; conditions: Bordetella bronchiseptica, B09, 18 h
Procedure: as §1

Past. haemolytica PA5 = test: MIC against veterinary bacteria in vitro; conditions: Mannheimia haemolytica, PA5, 18 h
Procedure: as §1

M. suipneumoniae HK(2) = test: MIC against mycoplasma in vitro; assay type: cell-based; conditions: Mesomycoplasma hyopneumoniae, 144 h; M. suipneumoniae HK(2); 6 days, 37° C.; read-out: MIC
Past. multocida PA1 = test: MIC against veterinary bacteria in vitro; conditions: Pasteurella multocida, PA1, 18 h
Procedure: as §1

M. suipneumoniae MS 16 = test: MIC against mycoplasma in vitro; assay type: cell-based; conditions: Mesomycoplasma hyopneumoniae, MS16, 144 h
Past. multocida PA2 = test: MIC against veterinary bacteria in vitro; conditions: Pasteurella multocida, PA2, 18 h
Procedure: as §1

E. coli NCTC 10418 = test: MIC against veterinary bacteria in vitro; conditions: Escherichia coli, NCTC10418, 18 h
Procedure: as §1

[7] = tested on: M. bovigenitalium ATCC 14173; test: MIC against mycoplasma in vitro; assay type: cell-based; conditions: 144 h
E. coli E1 = test: MIC against veterinary bacteria in vitro; conditions: Escherichia coli, E1, 18 h
Procedure: as §1

[8] = tested on: M. suipneumoniae ATCC 25095; test: MIC against mycoplasma in vitro; assay type: cell-based; conditions: Mesomycoplasma hyopneumoniae, ATCC25095, 144 h
M. bovis NCTC 10131 = test: microbe, parasite or virus in culture; assay type: cell-based; conditions: NCTC10131, 144 h
[9] = tested on: Staph. aureus 152 (pen. sens); test: MIC against veterinary bacteria in vitro; conditions: Staphylococcus aureus, 18 h
Procedure: as §1

M. suipneumoniae Str. 11 = test: MIC against mycoplasma in vitro; assay type: cell-based; conditions: Mesomycoplasma hyopneumoniae, STR.11, 144 h
M. hyorhinis ATCC 25021 = test: MIC against mycoplasma in vitro; assay type: cell-based; conditions: Mesomycoplasma hyorhinis, ATCC25021, 144 h; M. hyorhinis ATCC 25021; 6 days, 37° C.; read-out: MIC
M. dispar NCTC 10125 = test: MIC against mycoplasma in vitro; assay type: cell-based; conditions: 144 h
Strep. agalactiae SPA1 = test: MIC against veterinary bacteria in vitro; conditions: Streptococcus agalactiae, SPA1, 18 h
Procedure: as §1

M. hyorhinis ATCC 23234 = test: MIC against mycoplasma in vitro; assay type: cell-based; conditions: Mesomycoplasma hyorhinis, ATCC23234, 144 h; M. hyorhinis ATCC 23234; 6 days, 37° C.; read-out: MIC
M. suipneumoniae UCD 1 = test: MIC against mycoplasma in vitro; assay type: cell-based; conditions: Mesomycoplasma hyopneumoniae, UCD1, 144 h
[10] = tested on: M. suipneumoniae NCTC 10110; test: MIC against mycoplasma in vitro; assay type: cell-based; conditions: Mesomycoplasma hyopneumoniae, NCTC10110, 144 h; M. suipneumoniae NCTC 10110; 6 days, 37° C.; read-out: MIC

SMILES: C/C(=C\c1ncc(-c2ccc(Br)s2)o1)C[C@@H]1OC[C@H](C[C@@H]2O[C@H]2[C@@H](C)[C@H](C)O)[C@@H](O)[C@H]1O [Example 28, 5-[2-(5-Bromo)-thienyl]-2-(1-normon-2-yl)oxazole A]
- MIC (M. pneumoniae ATCC 15492): 5 µg/mL (≈ 9.46 µM)
- MIC [1]: 10 µg/mL (≈ 18.9 µM)
- MIC (B. subtilis ATCC 6633): 0.07 µg/mL (≈ 0.132 µM)
- MIC [2]: 0.156 µg/mL (≈ 0.295 µM)
- MIC (M. gallisepticum S6): 2.5 µg/mL (≈ 4.73 µM)
- MIC (Strep. dysgalactiae SPD1): 0.312 µg/mL (≈ 0.59 µM)
- MIC [3]: 40 µg/mL (≈ 75.7 µM)
- MIC (S. typhimurium S18): > 80 µg/mL
- MIC (M. suipneumoniae TAM 6N): 0.5 µg/mL (≈ 0.946 µM)
- MIC [4]: 0.5 µg/mL (≈ 0.946 µM)
- MIC [5]: > 80 µg/mL
- MIC (M. suipneumoniae JF 435): 1 µg/mL (≈ 1.89 µM)
- MIC (Strep. uberis SPU1): < 0.039 µg/mL
- MIC (Staph. aureus Oxford): 0.625 µg/mL (≈ 1.18 µM)
- MIC [6]: 1 µg/mL (≈ 1.89 µM)
- MIC (M. suipneumoniae LABER): 0.25 µg/mL (≈ 0.473 µM)
- MIC (S. dublin S7): > 80 µg/mL
- MIC (Bord. bronchiseptica B08): 80 µg/mL (≈ 151 µM)
- MIC (Bord. bronchiseptica B09): 20 µg/mL (≈ 37.8 µM)
- MIC (Past. haemolytica PA5): 80 µg/mL (≈ 151 µM)
- MIC (M. suipneumoniae HK(2)): 0.5 µg/mL (≈ 0.946 µM)
- MIC (Past. multocida PA1): 20 µg/mL (≈ 37.8 µM)
- MIC (M. suipneumoniae MS 16): 0.25 µg/mL (≈ 0.473 µM)
- MIC (Past. multocida PA2): 2.5 µg/mL (≈ 4.73 µM)
- MIC (E. coli NCTC 10418): > 80 µg/mL
- MIC [7]: 0.1 µg/mL (≈ 0.189 µM)
- MIC (E. coli E1): > 80 µg/mL
- MIC [8]: 0.25 µg/mL (≈ 0.473 µM)
- MIC (M. bovis NCTC 10131): 0.05 µg/mL (≈ 0.0946 µM)
- MIC [9]: 0.312 µg/mL (≈ 0.59 µM)
- MIC (M. suipneumoniae Str. 11): 0.25 µg/mL (≈ 0.473 µM)
- MIC (M. hyorhinis ATCC 25021): 0.5 µg/mL (≈ 0.946 µM)
- MIC (M. dispar NCTC 10125): 0.1 µg/mL (≈ 0.189 µM)
- MIC (Strep. agalactiae SPA1): 1.25 µg/mL (≈ 2.37 µM)
- MIC (M. hyorhinis ATCC 23234): 0.5 µg/mL (≈ 0.946 µM)
- MIC (M. suipneumoniae UCD 1): 0.25 µg/mL (≈ 0.473 µM)
- MIC [10]: 0.5 µg/mL (≈ 0.946 µM)
